Data: patent US6407137B2, “Dopamine analog amide” (Protarga, Inc., priority 1988, dated 2002)
Several values for one entry are separate records, joined by “and”; a condition that tells them apart may be missing. Equal values may be shown once. Entries after “also recorded” stand apart in the source; their conditions may differ. Read-outs that look alike come from different tables or passages of the source.

Assays:
[1] = Brain penetration index (BPI) determination, brain uptake relative to liver; type: in vivo, male balb C mice; conditions: for crossing of the blood brain barrier (in words): variations of the carrier; for BPI Value (%): BPI=[brain]/[liver]x100, 5 minutes after s.c. injection; for brain uptake / BPI relative to dopamine: compared with dopamine
Text: A brain penetration index (BPI) determination was used as a criterion for measuring the capacity of a compound to cross the blood brain barrier. Shashoua, V. E., Jacob, J. N., Ridge, R., Campbell, A. and Baldessarini, R. J., J. Med. Chem. 27, 659 (1984). The BPI is a measure of the uptake of a compound by the brain relative to its uptake by the liver. The liver is chosen as a reference since it is an organ which has no barrier to diffusable molecules present in the blood. Moreover, even if subcutaneous injections are used, the injected material tends to remain largely at the site of the injection and slowly diffuse into the circulation. Therefore, the amount of material in the liver will reflect the amount available rather than the initial dose injected.
Measurements of the quantity of the drug present in the brain and liver were measured at five minutes after a subcutaneous injection and were used to calculate the BPI, the equation being: […]
For these measurements, compound 8739 was synthesized from ^14C-labeled dopamine. Thirty μCi of dopamine labeled hydrochloride was mixed with 0.1 mg of unlabeled dopamine hydrobromide and reacted with a two-fold excess of DHA anhydride. The reaction was run overnight; the product was then evaporated to dryness and dissolved in ethanol. The compound was identified as 8739 by its migration properties on thin-layer chromatography using chloroform:methanol as one solvent and dimethylformamide (DMF) as the other. The migration properties were equivalent to those of the unlabeled product.
^14C-labeled 8739 was dissolved in 15% propylene glycol in 0.1 M NaHCO3 and then injected subcutaneously (s.c.) into male balb C mice (20±2 g). After 5 minutes the animals were sacrificed by cervical fracture and the brain and liver were dissected out, weighed and homogenized in 8 and 10 ml of Brain Protein Solvent (BPS) buffer, respectively [BPS=2% sodium dodecyl sulfate in 0.03 M Tris, 6 M urea, pH 7.6, 0.01 M EDTA and 0.14 N NaCl]. Aliquots were then counted for ^14C content in 10 ml of a liquid scintillation fluid, Liquiscent (National Diagnostic Company, Somerville, N.J.) using a Beckman liquid scintillation counter. The ^14C counts were then used to calculate the total quantity of compound 8739 present in the brain per gram of tissue as compared to that in the liver. The ratio of the amount in the brain as a percent of that present in liver was determined.

[2] = Food consumption measurements; type: in vivo, balb-c mice; conditions: for activity as an appetite-suppressant (in words): variations of the carrier
Procedure: The effect of compound 8739 on food consumption was determined for balb-c mice that were food deprived for 24 hr, with water freely available. The six test mice were given an i.p. injection of compound 8739 as a solution in 15% propylene glycol in 0.1 M NaHCO3, a total volume of between about 0.1-0.3 ml. The six control mice received the same volume of vehicle, but no drug. The quantity of “mouse chow” eaten during the 60-min period following the injections was determined. The results, also shown in FIG. 1, are expressed as the percent decrease in food consumption for the test group versus the control group. […] The decrease was dose dependent, with higher doses of compound 8739 causing greater decrease in food intake. The same experiment was conducted using oral administration of compound 8739.

[3] = Circling behavior in rats with unilateral nigrostriatal lesions; type: in vivo; conditions: for AVERAGE ROTATION SCORES (Rotations/minutes) Contralateral / AVERAGE ROTATION SCORES (Rotations/minutes) Ipsilateral: 30-min period; for circling behavior (in words): rats with nigrostriatal lesions, i.p.
Procedure: Dopamine agonists such as apomorphine and amphetamine cause circling behavior in animals with nigrostriatal lesions.
Unilateral nigrostriatal lesions in rats were produced by administering unilateral injections of 6-OH dopamine into the nigrostriatum pathway. Seven days later, these animals were i.p. injected with the test drugs and circling behavior was recorded as rotations per minute during a 30-min period in the test apparatus, Ungerstedt U. and Arbathnott G. W., Brain Res. 24, 485-493 (1970).

[4] = Test for tolerance: food consumption during long-term administration; type: in vivo, mice; conditions: for tolerance: food intake
Procedure: The effect of long-term administration of compound 8739 on the pattern of food consumption of mice was compared to the long-term effects of the administration of amphetamine. Daily i.p. injections of compound 8739 (20 mg/kg) were given to test animals and daily i.p. injections of amphetamine (2 mg/kg) were given to control animals for 21 days. 24 hours after the first injection and about every five days after that, the animals were food-deprived for 24 hours with water freely available, and then were tested for food consumption for one-hour beginning at five minutes after receiving their daily injection.
FIG. 4 plots the percent decrease in food consumption versus time.

[5] = animal tests, background; cited from earlier work
[6] = Pattern of distribution of 14C-labeled 8739 in membranes of the central nervous system (P1/P2 fractions); type: in vivo, mice
Procedure: The fraction P1 containing nuclear and cell membrane components was sedimented for 5 min at 2,500 rpm at 0° C. The supernatant containing the crude synaptosomal fraction was next centrifuged at 13,000 rpm for 30 min to yield a pellet containing the crude synaptosomal fraction (P2). P1 and P2 were then dissolved in BPS, and the amount of label and protein in each fraction was determined.

[7] = Open-field motor activity measurement; type: in vivo, balb-c mice; conditions: for changes in open-field activity: administered at the same dose as compound 8739
Procedure: The effect of compound 8739 on general motor activity was determined. The general motor activity of balb-c mice was measured in a Stoelting electronic activity monitor apparatus during a 90-min period following an intraperitoneal injection of the compound as a solution in 15% propylene glycol in 0.1 M NaHCO3. A detailed description of the apparatus is reported in Stewart R. J., Campbell A., Spark G. and Balessarini R. J. Psychopharmacol. 60, 281 (1979).
The test group (six mice) received an i.p. injection of the drug in a vehicle (15% propylene glycol in 0.1 M NaHCO3, a total volume of between about […].). The six control mice received the same volume of vehicle, but no drug. The results (Shown in FIG. 1,) are expressed as the percent decrease in open field activity for the test group versus the control group. […] The response was dose dependant with higher doses of compound 8739 resulting in a greater decrease in general motor activity.
The effects of the mode of delivery of Compound 8739 (oral vs. i.p.) on the general open-field activity of mice (n=6) was assessed. […] A 40-50% decrease in activity occurred when either delivery method was employed.

[8] = Self-stimulation test (electrodes in lateral hypothalamus); type: in vivo; conditions: rats
Text: A self-stimulation test has been used to measure the capacity of a given pharmacological agent to inhibit rats from receiving self-induced electrical stimuli via electrodes implanted in their brains (lateral hypothalamus). Stellar J. R. and Stellar E., The Neurobiology of Motivation and Reward, Springer-Verlag, New York, 1985. Animals will press levers to receive a pulse of current from the implanted electrode at a rate dependent upon the quantity of current that is being delivered as a reward. […] R.). […] A plot of the log of the frequency of the delivered pulses vs. the rate of level press for an animal gives the self-stimulation reward curve. Injections of drugs which have a neuroleptic-type or tranquilizing effect can depress the rate of self-stimulation, shifting the response to higher current deliveries. Pemozide can give a depressed rate by about 90%. […] The animal continues to press the lever at the rate equivalent to a non-injected control or one receiving the vehicle alone.

[9] = Test for tolerance: open field activity during daily injections; type: in vivo, mice; conditions: 20 mg/kg i.p. daily for 21 days
Procedure: The effects of daily i.p. injections of compound 8739 at a dose of 20 mg/kg on open field activity and food consumption was tested to determine whether tolerance to the drug was induced over time. The open field activity of six test mice and six control mice was monitored for five days. Then, the test mice were given i.p. injections of the drug in a vehicle and the control mice were given i.p. injections of the vehicle only. This regimen was carried out for a 21 day test period. At the end of the 21 days, the vehicle alone was given daily to both test and control mice and open field activity and food consumption was monitored for an additional six days.
FIG. 3 plots the percent decrease in open field activity of the test mice (n=6) as compared to the controls (n=6). […] Upon initation of injections, there was a 30% to 60% decrease in open field activity. […] Beginning at day 22 and daily until day 27, vehicle alone was given to both groups.

D-1 dopamine receptors = assay: Dopamine receptor binding assay (D-1)
D-2 dopamine receptors = D-2 dopamine receptors (Homo sapiens, UniProt P14416); assay: Dopamine receptor binding assay (D-2)
Swelling of the brain = assay: Swelling of the brain
Text: Another favorable property of compound 8739 was unexpected. […] Chan, P. H., Fishman, R. A., SCIENCE, Vol. 20, 358-360 (1978).

[10] = in vivo
Text: Many of the undesirable side effects of amphetamines were absent. […] Failure to induce tolerance was unexpected.

[11] = reported in the literature; cited from earlier work
[12] = previous reports, Chan and Fishman, SCIENCE (1978); cited from earlier work
[13] = 14C-labeled, s.c. injection, mice, 5 minutes after injection
[14] = 14C-labeled 8739 s.c., mice, brain, 30 min

Sequence of D-2 dopamine receptors (P14416 whole entry): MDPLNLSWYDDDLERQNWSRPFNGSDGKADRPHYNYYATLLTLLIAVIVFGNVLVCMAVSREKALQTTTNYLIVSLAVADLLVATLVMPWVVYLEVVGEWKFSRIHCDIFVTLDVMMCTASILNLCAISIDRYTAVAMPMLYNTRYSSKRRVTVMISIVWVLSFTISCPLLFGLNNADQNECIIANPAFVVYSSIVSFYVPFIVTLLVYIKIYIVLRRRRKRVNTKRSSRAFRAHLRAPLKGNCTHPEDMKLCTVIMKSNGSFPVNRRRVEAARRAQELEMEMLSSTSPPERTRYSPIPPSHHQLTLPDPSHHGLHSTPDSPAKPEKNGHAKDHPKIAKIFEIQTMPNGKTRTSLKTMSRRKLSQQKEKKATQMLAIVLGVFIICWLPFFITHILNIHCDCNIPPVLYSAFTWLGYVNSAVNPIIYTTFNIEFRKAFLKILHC
Sequence of D-1 dopamine receptors (P21728 whole entry): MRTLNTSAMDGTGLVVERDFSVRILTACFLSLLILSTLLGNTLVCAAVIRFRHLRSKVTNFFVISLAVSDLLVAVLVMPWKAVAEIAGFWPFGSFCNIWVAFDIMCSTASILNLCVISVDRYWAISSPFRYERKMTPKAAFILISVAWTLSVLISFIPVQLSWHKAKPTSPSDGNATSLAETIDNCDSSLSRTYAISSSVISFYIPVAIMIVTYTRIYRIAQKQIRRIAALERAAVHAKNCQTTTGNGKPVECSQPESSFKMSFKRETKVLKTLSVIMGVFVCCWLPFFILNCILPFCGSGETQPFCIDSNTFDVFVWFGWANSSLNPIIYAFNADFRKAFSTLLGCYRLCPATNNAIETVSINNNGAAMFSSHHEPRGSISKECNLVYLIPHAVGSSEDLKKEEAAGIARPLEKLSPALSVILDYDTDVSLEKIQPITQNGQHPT

## CCCCCCCCCCCC(=O)NCCc1ccc(O)c(O)c1
[1]
  crossing of the blood brain barrier (in words): does not effectively cross the blood brain barrier
[2]
  activity as an appetite-suppressant (in words): completely inactive

## CCCCCCCCCCCCCCCCCCCCCC(=O)NCCc1ccc(O)c(O)c1
[1]
  crossing of the blood brain barrier (in words): does not effectively cross the blood brain barrier
[2]
  activity as an appetite-suppressant (in words): essentially inactive

## CC(N)Cc1ccccc1 (stereo not drawn) [Amphetamine]
[3]; 3.0 mg/kg i.p.
  AVERAGE ROTATION SCORES (Rotations/minutes) Contralateral: 0.4 Rotations/minutes
  AVERAGE ROTATION SCORES (Rotations/minutes) Ipsilateral: 2.5 Rotations/minutes
[3]; 5.0 mg/kg i.p.
  AVERAGE ROTATION SCORES (Rotations/minutes) Contralateral: 0.92 Rotations/minutes
  AVERAGE ROTATION SCORES (Rotations/minutes) Ipsilateral: 3.32 Rotations/minutes
[3]
  circling behavior (in words): circling rapidly to the ipsilateral lesion side
[4]; 2 mg/kg i.p. daily for 21 days
  decrease in food intake over time: virtually disappeared after 15 days
  tolerance: complete tolerance
[5]
  time within which tolerance develops: 3 to 15 days

## CN1CCc2cccc3c2[C@H]1Cc1ccc(O)c(O)c1-3 [Apomorphine]
[3]; 0.1 mg/kg i.p.
  AVERAGE ROTATION SCORES (Rotations/minutes) Contralateral: 4.8 Rotations/minutes
  AVERAGE ROTATION SCORES (Rotations/minutes) Ipsilateral: 0.1 Rotations/minutes
[3]; 0.5 mg/kg i.p.
  AVERAGE ROTATION SCORES (Rotations/minutes) Contralateral: 13.7 Rotations/minutes
  AVERAGE ROTATION SCORES (Rotations/minutes) Ipsilateral: 0 Rotations/minutes
[3]
  circling behavior (in words): rapid circling behavior to the contralateral side of the lesion

## CC/C=C\C/C=C\C/C=C\C/C=C\C/C=C\C/C=C\CCC(=O)NCCc1ccc(O)c(O)c1 [Compound 8739]
[1]; [13]
  Brain (cpm/g): 1305 cpm/g and 1297 cpm/g
  Liver (cpm/g): 4300 cpm/g and 3931 cpm/g
[1]
  BPI Value (%): 30% and 33%
  brain uptake / BPI relative to dopamine: eight times that of dopamine
[1]; listed as compound 8739
  brain uptake / BPI relative to dopamine: over eight-fold higher
[6]; [14]
  P1 (Nuclear and Cell Membrane Fraction), CPM/mg Protein after 30 min of Uptake: 4.19 CPM/mg Protein and 2.7 CPM/mg Protein
  P2/P1: 2.9 and 1.9 and 2.1
[6]; average of the experiments of Table II
  factor by which uptake into P2 was greater than into P1, average: 2.3
[7]; i.p. injection, mice, 90-min period
  percent decrease in open field activity, test group versus control group: 40-50%
[7]; oral delivery, mice n=6
  decrease in open-field activity: 40-50%
[7]; oral vs. i.p.
  activity when given orally compared with injection: as active when ingested as when injected; also recorded: without any apparent loss in efficacy
[2]; oral administration, same experiment
  food consumption, oral administration compared with i.p.: The results were the same
[3]; 34 mg/kg i.p.
  AVERAGE ROTATION SCORES (Rotations/minutes) Contralateral: 0.05 Rotations/minutes
  AVERAGE ROTATION SCORES (Rotations/minutes) Ipsilateral: 0.08 Rotations/minutes
[3]; 51 mg/kg i.p.
  AVERAGE ROTATION SCORES (Rotations/minutes) Contralateral: 0.12 Rotations/minutes
  AVERAGE ROTATION SCORES (Rotations/minutes) Ipsilateral: 0.08 Rotations/minutes
[3]
  circling behavior (in words): failed to produce an effect; also recorded: did not evoke this behavior
[3]; listed as compound 8739
  circling behavior (in words): do not result
[8]
  effect on self-stimulation parameters (reward, motor aspect, motivation): no effect on either the reward or the motor aspect; also recorded: do not result
[9]
  tolerance: no indication of tolerance
[9]; listed as compound 8739
  tolerance: no tolerance was induced
[4]; 20 mg/kg i.p. daily for 21 days
  tolerance: no tolerance had developed
D-1 dopamine receptors
  binding to D-1 dopamine receptors: does not bind
D-2 dopamine receptors
  binding to D-2 dopamine receptors: does not bind
Swelling of the brain
  swelling of the brain: did not induce any swelling
[10]
  effects on motor function or motivation: failed to demonstrate any diverse effects
  stereotypy: failed to induce

## O=C[C@H](O)[C@@H](O)[C@H](O)[C@H](O)CO [D-glucose]
[11]
  BPI Value (%): 33%
  BPI index: 33

## NCCc1ccc(O)c(O)c1 [Dopamine]
[1]
  brain penetration index (BPI): about 4
  BPI Value (%): 4%
[7]
  changes in open-field activity: No significant changes

## CCC=CCC=CCC=CCC=CCC=CCC=CCCC(=O)O [carrier molecule (T), 4, 7, 10, 13, 16, 19 docosahexa-enoic acid, reference compound]
[7]
  changes in open-field activity: No significant changes
[12]
  swelling of the brain: induce swelling of the brain
